Tests used:
Syk kinase = target: T1, Syk kinase (Homo sapiens, UniProt P43405); assay: ELISA-based Syk kinase assay (phosphorylation of HS1 peptide substrate by isolated Syk kinase); type: biochemical; details: IC50 of Syk kinase inhibition; 2 μM ATP, 2 μM peptide substrate
T1 construct: purchased Millipore 14-314
Method: Compounds were tested for the ability to inhibit Syk kinase catalyzed phosphorylation of a peptide substrate in an assay with isolated Syk kinase.
An assay was carried out in a Costar white 96 well plate (Fisher Scientific, Cat No. 07-200-591) coated overnight with 0.01 mg/ml Neutravidin (Pierce, 100 μl/well) at 4° C. Neutravidin pre-coated 96 well plates were blocked with 2% BSA in PBST buffer for at least 1 hour before starting the assay at room temperature. Serially diluted compound stock solution containing a subject compound was prepared separately in DMSO solution starting from 300 μM and 2 μl of this diluted compound (3% DMSO final concentration) was added directly to neutravidin coated assay plate containing 55.5 μl/well of kinase reaction buffer composed of 20 mM HEPES, pH 7.4, 5 mM MgCl2, 2 mM MnCl2, 1 mM DTT, 0.01% Tween 20 pre-mixed with ATP and kinase substrate (HS1 peptide). Reaction was initiated by adding of 2.5 μl/well Syk kinase (Millipore, Cat No. 14-314) resulting in a final reaction volume of 60 μl and then the reaction was allowed to continue for 30 minutes at room temperature. Final enzyme reaction conditions were 20 mM HEPES, pH 7.4, 5 mM MgCl2, 2 mM MnCl2, 1 mM DTT, 0.01% Tween 20, 0.25 ng Syk, 2 μM ATP, 2 μM peptide substrate (Biotin-EQEDEPEGDYEEVLE-CONH2, SynPep Corporation). After completing the reaction, assay plate was washed three times with PBST and incubated for 1 hour at room temperature with 100 μl/well of phosphopeptide detection antibody solution prepared by mixing 1-1000 diluted mouse anti-pTyr monoclonal antibody (Cell Signal Technology, Cat No. 9411) and 1-1000 diluted goat HRP-conjugated anti-mouse IgG (Jackson Immunoresearch, Cat. No. 115-035-003). Before developing the plate with supersignal ELISA pico chemiluminescent substrate (Pierce), plate was washed three times again with PBST and were read on a SpectraMax M5 microplate reader (Moleculear Devices).

[1] = system: Human mast cells (CHMC cells); assay: Tryptase release assay (mast cell degranulation induced by anti-IgG FcγR cross-linking); type: cell-based; details: IC50 of tryptase release from human mast cells after anti-IgG stimulation, read-out: LD Tryptase
Method: Compounds were assayed for inhibition of mast cell activation induced by FcγR cross-linking by measuring the activity of tryptase released upon degranulation as follows:
Human mast cells were cultured and differentiated from […] progenitor cell as described in U.S. Patent Publication No. 2005-234049, incorporated herein by reference. For example, 65 μl of various concentrations of the compound to be assayed were prepared in MT (137 mM NaCl, 2.7 mM KCl, 1.8 mM CaCl2, 1.0 mM MgCl2, 5.6 mM Glucose, 20 mM Hepes (pH 7.4), 0.1% Bovine Serum Albumin, (Sigma A4503)) containing 2% MeOH and 1% DMSO, or control buffer were added to duplicate 96-well V-bottom plates. Pelleted and resuspended (in warm MT) CHMC cells (65 μl) were added to each 96-well plate, mixed and incubated for 1 hour at 37° C. 25 μl of 6× anti-IgG Rabbit anti-human IgG, Affinity purified (Bethyl Laboratories Cat No. A80-105A3) final concentration 1 μg/ml, was added to the test wells. MT (25 μl) was added to control wells. After a 60-minute incubation at 37° C., cells and cell debris were pelleted by centrifugation at 1000 rpm for 10 min and tryptase and leukotriene C4 levels were measured.
To measure tryptase levels, 25 μl of supernatant from each well was transferred to a fresh 96-well black bottom plate, to which 100 μl of fresh tryptase substrate solution [(Z-Ala-Lys-Arg-AMC2TFA; Enzyme Systems Products, #AMC-246)] 1:2000 in tryptase assay buffer [0.1 M Hepes (pH 7.5), 10% w/v Glycerol, 10 μM Heparin (Sigma H-4898) 0.01% NaN3] was added. After 30 minute incubation at room temperature, the optical density of the plates is measured at 355 nm/460 nm on a spectrophotometric plate reader. Table 2 provides the IC50 values.

| Structure (SMILES) | IC50 (Syk kinase) [µM] | IC50 [1] [µM] |
| --- | --- | --- |
| N#Cc1cnn2c(Nc3ccc4c(c3)OCCO4)c(-c3ccc4c(c3)NC(=O)CO4)[nH]c12 [Compound 50] | 0.51 to 2.99 | > 5000 |
| COc1cc(Nc2c(-c3cc(O)c(OC)c(OC)c3)[nH]c3c(C#N)cnn23)ccc1F [Compound 118] | < 0.5 | < 10 |
| COC(=O)c1cccc(Nc2c(-c3ccc4c(c3)NC(=O)CO4)[nH]c3c(C#N)cnn23)c1 [Compound 10] | 0.51 to 2.99 | 11 to 100 |
| COc1cc(Nc2c(-c3ccc(OC)c(OCC(N)=O)c3)[nH]c3c(C#N)cnn23)ccc1F [Compound 138] | 0.51 to 2.99 | < 10 |
| COc1cc(-c2[nH]c3c(C#N)cnn3c2Nc2ccc(CNC(=O)c3cnccc3C(F)(F)F)cc2)cc(OC)c1OC [Compound 155] | 0.51 to 2.99 | < 10 |
| COc1cc(Nc2c(-c3ccc(C(N)=O)cc3)[nH]c3c(C#N)cnn23)ccc1F [Compound 117] | 0.51 to 2.99 | > 5000 |
| COc1ccc(Nc2c(-c3cc(OC)c(OC)c(OC)c3)[nH]c3c(C#N)cnn23)cc1OC [Compound 28] | < 0.5 | < 10 |
| COc1ccc(Nc2c(-c3ccc4[nH]ccc4c3)[nH]c3c(C#N)cnn23)cc1OC [Compound 5] | 0.51 to 2.99 | < 10 |
| COCCOc1ccc(-c2[nH]c3c(C#N)cnn3c2Nc2ccc(OC)c(OC)c2)cc1OC [Compound 108] | < 0.5 | < 10 |
| COc1cc(-c2[nH]c3c(C#N)cnn3c2Nc2ccc(Br)cc2)cc(OC)c1OC [Compound 23] | 0.51 to 2.99 | < 10 |
| COc1ccc(Nc2c(-c3ccc4c(c3)OCO4)[nH]c3c(C#N)cnn23)cc1OC [Compound 51] | 0.51 to 2.99 | < 10 |
| COc1cc(-c2[nH]c3c(C#N)cnn3c2Nc2ccc(F)c(OC(C)C)c2)cc(OC)c1OC [Compound 133] | 0.51 to 2.99 | < 10 |
| COc1cc(-c2[nH]c3c(C#N)cnn3c2Nc2ccc(CNC(=O)c3cccnc3OC)cc2)cc(OC)c1OC [Compound 153] | < 0.5 | < 10 |
| COc1cc(-c2[nH]c3c(C#N)cnn3c2Nc2cccc(NC(C)=O)c2)cc(OC)c1OC [Compound 30] | 0.51 to 2.99 | < 10 |
| COc1cc(-c2[nH]c3c(C#N)cnn3c2Nc2ccc(CNC(=O)c3ccc(C)nc3)cc2)cc(OC)c1OC [Compound 154] | 0.51 to 2.99 | 11 to 100 |
| COc1ccc(Nc2c(-c3cc(OC)c(OC)c(OC)c3)[nH]c3c(C#N)cnn23)cc1F [Compound 127] | < 0.5 | < 10 |

| Structure (SMILES) | IC50 (Syk kinase) [µM] | IC50 [1] [µM] |
| --- | --- | --- |
| COc1ccc(Nc2c(-c3ccc(OC)c(OC4CCCC4)c3)[nH]c3c(C#N)cnn23)cc1OC [Compound 106] | < 0.5 | < 10 |
| COc1ccc(Nc2c(-c3ccc4cc[nH]c4c3)[nH]c3c(C#N)cnn23)cc1OC [Compound 6] | 0.51 to 2.99 | < 10 |
| COc1ccc(Nc2c(-c3cccc(N4CCOCC4)c3)[nH]c3c(C#N)cnn23)cc1OC [Compound 105] | 0.51 to 2.99 | 11 to 100 |
| COc1ccc(Nc2c(-c3ccc4c(c3)OCCO4)[nH]c3c(C#N)cnn23)cc1OC [Compound 38] | 0.51 to 2.99 | > 5000 |
| COc1cc(Nc2c(-c3ccc(OCC(N)=O)c(OC)c3)[nH]c3c(C#N)cnn23)ccc1F [Compound 139] | < 0.5 | < 10 |
| COc1ccc(Nc2c(-c3cccc(NS(C)(=O)=O)c3)[nH]c3c(C#N)cnn23)cc1OC [Compound 114] | 0.51 to 2.99 | < 10 |
| COc1ccc(Nc2c(-c3cc(O)c(OC)c(OC)c3)[nH]c3c(C#N)cnn23)cc1OC [Compound 100] | < 0.5 | < 10 |
| COc1cc(Nc2c(-c3cc(OC)c(OC)c(OC)c3)[nH]c3c(C#N)cnn23)ccc1Cl [Compound 132] | 0.51 to 2.99 | < 10 |
| COc1ccc(Nc2c(-c3ccc(OC)c(OCC(N)=O)c3)[nH]c3c(C#N)cnn23)cc1OC [Compound 125] | 0.51 to 2.99 | < 10 |
| COc1ccc(Nc2c(-c3ccc(OCCN4CCOCC4)cc3)[nH]c3c(C#N)cnn23)cc1OC [Compound 124] | 0.51 to 2.99 | < 10 |
| COc1cc(-c2[nH]c3c(C#N)cnn3c2Nc2ccc(CNC(=O)c3ccc(C(F)(F)F)nc3)cc2)cc(OC)c1OC [Compound 156] | 0.51 to 2.99 | < 10 |
| COc1cc(-c2[nH]c3c(C#N)cnn3c2Nc2cccc(CNC(=O)c3ccncc3)c2)cc(OC)c1OC [Compound 148] | < 0.5 | 101 to 5000 |
| N#Cc1cnn2c(Nc3ccc(Br)cc3)c(-c3ccc4c(c3)NC(=O)CO4)[nH]c12 [Compound 45] | 0.51 to 2.99 | 101 to 5000 |
| COc1cc(-c2[nH]c3c(C#N)cnn3c2Nc2ccc(CNC(=O)c3ccncc3)cc2)cc(OC)c1OC [Compound 150] | 0.51 to 2.99 | 11 to 100 |
| COc1ccc(-c2[nH]c3c(C#N)cnn3c2Nc2ccc(OC)c(OC)c2)cc1F [Compound 52] | 3 to 25 | > 5000 |
| COc1ccc(Nc2c(-c3ccc(C(N)=O)cc3)[nH]c3c(C#N)cnn23)cc1OC [Compound 103] | < 0.5 | 11 to 100 |

Reference: patent US8377945B2, “Small molecule inhibitors of spleen tyrosine kinase (SYK)” (Rigel Pharmaceuticals Inc., priority 2009, dated 2013)
